Laboratory results published in patent US20260022142A1, “MACROCYCLIC IMMUNOMODULATORS” (Bristol-Myers Squibb Company, priority 2022, published 2026).
Bridge positions count the residues as written; N and C are the ends. Square brackets hold non-standard residues; d marks the D form. Peptide text beside a SMILES is read from it. * marks the point of attachment. Bip = N[C@@H](Cc1ccc(-c2ccccc2)cc1)C(=O)O; Phe(3-Me) = Cc1cccc(C[C@H](N)C(=O)O)c1; Cha = N[C@@H](CC1CCCCC1)C(=O)O; Carboxymethyl = O=C(O)C*; Orn = NCCC[C@H](N)C(=O)O; Aun = NCCCCCCCCCCC(=O)O; Dab = NCC[C@H](N)C(=O)O; Dap = NC[C@H](N)C(=O)O; AEEA = NCCOCCOCC(=O)O

Biological target: T1, PD-1/PD-L1 interaction (PE-labeled human PD-L1-Ig binding to Jurkat cell line over-expressing human PD-1) (Homo sapiens, UniProt Q15116)
T1 construct: expressed in transfected cells; host or cells: Jurkat
Test: Jurkat-PD-1 Cell Binding High-Content Screening Assay (CBA)
Assay type: cell-based
Settings: Jurkat cell line over-expressing human PD-1; PE-labeled PD-L1-Ig 20 nM final; read-out: Jurkat hPD1-PDL1 IC50
Summary of the method: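 Read-out is high-content imaging of cell-bound phycoerythrin-tagged PD-L1-Ig on fixed, Hoechst-counterstained Jurkat cells that over-express human PD-1. Compound exposure lasts 2 h at 37° C before the labeled ligand (20 nM final) is added for a further hour.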

T1 sequence (Q15116 25-288): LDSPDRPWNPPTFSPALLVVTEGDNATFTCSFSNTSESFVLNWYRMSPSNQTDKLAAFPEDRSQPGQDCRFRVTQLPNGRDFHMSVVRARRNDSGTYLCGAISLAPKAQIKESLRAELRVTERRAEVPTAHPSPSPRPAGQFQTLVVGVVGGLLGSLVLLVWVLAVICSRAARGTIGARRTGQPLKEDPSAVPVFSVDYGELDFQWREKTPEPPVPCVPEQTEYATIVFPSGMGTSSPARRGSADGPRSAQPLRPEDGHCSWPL

Structure (SMILES)	IC50 [nM]
CC(C)C[C@H]1NC(=O)[C@H](CCCN)NC(=O)[C@H](C(C)C)NC(=O)[C@H](Cc2ccc(-c3ccccc3)cc2)NC(=O)[C@H](C(C)C)NC(=O)[C@H](Cc2c[nH]c3ccccc23)NC(=O)[C@H](CC(=O)O)NC(=O)[C@H](Cc2ccc(OCC(=O)O)cc2)NC(=O)[C@H](CN)NC(=O)CSC[C@@H](C(=O)N[C@@H](C)C(=O)N[C@@H](CC(=O)O)C(=O)NCC(=O)NCCCCCCCCCCC(=O)O)NC(=O)[C@H]([C@@H](C)O)NC(=O)[C@H](C(C)C)NC(=O)[C@H](CC2CCCCC2)NC(=O)[C@H](Cc2cnc[nH]2)NC1=O [Compound 1089] ({CH2CO}-[Dap]Y(Carboxymethyl)DWV[Bip]V[Orn][dL]H[Cha]VTCADG[Aun]-OH; thioether N-14)	33.1
CC(C)C[C@H]1NC(=O)[C@H](CCCN)NC(=O)[C@H](C(C)C)NC(=O)[C@H](Cc2ccc(-c3ccccc3)cc2)NC(=O)[C@H](C(C)C)NC(=O)[C@H](Cc2c[nH]c3ccccc23)NC(=O)[C@H](CC(=O)O)NC(=O)[C@H](Cc2ccc(OCC(=O)O)cc2)NC(=O)[C@H](CN)NC(=O)CSC[C@@H](C(=O)N[C@@H](C)C(=O)N[C@@H](CCCCN)C(=O)NCCCCCCCCCCC(=O)O)NC(=O)[C@H]([C@@H](C)O)NC(=O)[C@H](C(C)C)NC(=O)[C@H](CC2CCCCC2)NC(=O)[C@H](Cc2cnc[nH]2)NC1=O [Compound 1090] ({CH2CO}-[Dap]Y(Carboxymethyl)DWV[Bip]V[Orn][dL]H[Cha]VTCAK[Aun]-OH; thioether N-14)	38.9
CC(C)C[C@H]1NC(=O)[C@H](CCCN)NC(=O)[C@H](C(C)C)NC(=O)[C@H](Cc2ccc(-c3ccccc3)cc2)NC(=O)[C@H](C(C)C)NC(=O)[C@H](Cc2c[nH]c3ccccc23)NC(=O)[C@H](CC(=O)O)NC(=O)[C@H](Cc2ccc(OCC(=O)O)cc2)NC(=O)[C@H](CN)NC(=O)CSC[C@@H](C(=O)N[C@@H](C)C(=O)N[C@@H](CCCN)C(=O)NCCCCCCCCCCC(=O)O)NC(=O)[C@H]([C@@H](C)O)NC(=O)[C@H](C(C)C)NC(=O)[C@H](CC2CCCCC2)NC(=O)[C@H](Cc2cnc[nH]2)NC1=O [Compound 1091] ({CH2CO}-[Dap]Y(Carboxymethyl)DWV[Bip]V[Orn][dL]H[Cha]VTCA[Orn][Aun]-OH; thioether N-14)	31.5
CC(C)C[C@H]1NC(=O)[C@H](CCCN)NC(=O)[C@H](C(C)C)NC(=O)[C@H](Cc2ccc(-c3ccccc3)cc2)NC(=O)[C@H](C(C)C)NC(=O)[C@H](Cc2c[nH]c3ccccc23)NC(=O)[C@H](CC(=O)O)NC(=O)[C@H](Cc2ccc(OCC(=O)O)cc2)NC(=O)[C@H](CN)NC(=O)CSC[C@@H](C(=O)N[C@@H](CC(=O)O)C(=O)NCC(=O)NCCCCCCCCCCC(=O)O)NC(=O)[C@H]([C@@H](C)O)NC(=O)[C@H](C(C)C)NC(=O)[C@H](CC2CCCCC2)NC(=O)[C@H](Cc2cnc[nH]2)NC1=O [Compound 1092] ({CH2CO}-[Dap]Y(Carboxymethyl)DWV[Bip]V[Orn][dL]H[Cha]VTCDG[Aun]-OH; thioether N-14)	37.3
Cc1cccc(C[C@@H]2NC(=O)[C@H](CC(=O)O)NC(=O)[C@H](Cc3ccc(OCC(=O)O)cc3)NC(=O)[C@H](CN)NC(=O)CSC[C@@H](C(=O)N[C@@H](CC(=O)O)C(=O)NCC(=O)NCCCCCCCCCCC(=O)O)NC(=O)[C@H]([C@@H](C)O)NC(=O)[C@H](C(C)C)NC(=O)[C@H](CC3CCCCC3)NC(=O)[C@H](Cc3cnc[nH]3)NC(=O)[C@@H](CC(C)C)NC(=O)[C@H](CCCN)NC(=O)[C@H](C(C)C)NC(=O)[C@H](Cc3ccc(-c4ccccc4)cc3)NC(=O)[C@H](C(C)C)NC2=O)c1 [Compound 1093] ({CH2CO}-[Dap]Y(Carboxymethyl)D[Phe(3-Me)]V[Bip]V[Orn][dL]H[Cha]VTCDG[Aun]-OH; thioether N-14)	11.8
CC(C)C[C@H]1NC(=O)[C@H](CCCN)NC(=O)[C@H](C(C)C)NC(=O)[C@H](Cc2ccc(-c3ccccc3)cc2)NC(=O)[C@H](C(C)C)NC(=O)[C@H](Cc2c[nH]c3ccccc23)NC(=O)[C@H](CC(=O)O)NC(=O)[C@H](Cc2ccc(OCC(=O)O)cc2)NC(=O)[C@H](CN)NC(=O)CSC[C@@H](C(=O)N[C@@H](CCC(=O)O)C(=O)NCC(=O)NCCCCCCCCCCC(=O)O)NC(=O)[C@H]([C@@H](C)O)NC(=O)[C@H](C(C)C)NC(=O)[C@H](CC2CCCCC2)NC(=O)[C@H](Cc2cnc[nH]2)NC1=O [Compound 1094] ({CH2CO}-[Dap]Y(Carboxymethyl)DWV[Bip]V[Orn][dL]H[Cha]VTCEG[Aun]-OH; thioether N-14)	17.2

Second part, the molecule after the results:

IC50 [nM]	Structure (SMILES)
15.7	CC(C)C[C@H]1NC(=O)[C@H](CCCN)NC(=O)[C@H](C(C)C)NC(=O)[C@H](Cc2ccc(-c3ccccc3)cc2)NC(=O)[C@H](C(C)C)NC(=O)[C@H](Cc2c[nH]c3ccccc23)NC(=O)[C@H](CC(=O)O)NC(=O)[C@H](Cc2ccc(OCC(=O)O)cc2)NC(=O)[C@H](CN)NC(=O)CSC[C@@H](C(=O)NCCOCCOCC(=O)N[C@@H](CN)C(=O)NCCCCCCCCCCC(=O)O)NC(=O)[C@H]([C@@H](C)O)NC(=O)[C@H](C(C)C)NC(=O)[C@H](CC2CCCCC2)NC(=O)[C@H](Cc2cnc[nH]2)NC1=O [Compound 1095] ({CH2CO}-[Dap]Y(Carboxymethyl)DWV[Bip]V[Orn][dL]H[Cha]VTC[AEEA][Dap][Aun]-OH; thioether N-14)
15.7	CC(C)C[C@H]1NC(=O)[C@H](CCCN)NC(=O)[C@H](C(C)C)NC(=O)[C@H](Cc2ccc(-c3ccccc3)cc2)NC(=O)[C@H](C(C)C)NC(=O)[C@H](Cc2c[nH]c3ccccc23)NC(=O)[C@H](CC(=O)O)NC(=O)[C@H](Cc2ccc(OCC(=O)O)cc2)NC(=O)[C@H](CN)NC(=O)CSC[C@@H](C(=O)NCCOCCOCC(=O)N[C@@H](CCN)C(=O)NCCCCCCCCCCC(=O)O)NC(=O)[C@H]([C@@H](C)O)NC(=O)[C@H](C(C)C)NC(=O)[C@H](CC2CCCCC2)NC(=O)[C@H](Cc2cnc[nH]2)NC1=O [Compound 1096] ({CH2CO}-[Dap]Y(Carboxymethyl)DWV[Bip]V[Orn][dL]H[Cha]VTC[AEEA][Dab][Aun]-OH; thioether N-14)
14.9	CC(C)C[C@H]1NC(=O)[C@H](CCCN)NC(=O)[C@H](C(C)C)NC(=O)[C@H](Cc2ccc(-c3ccccc3)cc2)NC(=O)[C@H](C(C)C)NC(=O)[C@H](Cc2c[nH]c3ccccc23)NC(=O)[C@H](CC(=O)O)NC(=O)[C@H](Cc2ccc(OCC(=O)O)cc2)NC(=O)[C@H](CN)NC(=O)CSC[C@@H](C(=O)NCCOCCOCC(=O)N[C@@H](CCCN)C(=O)NCCCCCCCCCCC(=O)O)NC(=O)[C@H]([C@@H](C)O)NC(=O)[C@H](C(C)C)NC(=O)[C@H](CC2CCCCC2)NC(=O)[C@H](Cc2cnc[nH]2)NC1=O [Compound 1097] ({CH2CO}-[Dap]Y(Carboxymethyl)DWV[Bip]V[Orn][dL]H[Cha]VTC[AEEA][Orn][Aun]-OH; thioether N-14)
13.8	CC(C)C[C@H]1NC(=O)[C@H](CCCN)NC(=O)[C@H](C(C)C)NC(=O)[C@H](Cc2ccc(-c3ccccc3)cc2)NC(=O)[C@H](C(C)C)NC(=O)[C@H](Cc2c[nH]c3ccccc23)NC(=O)[C@H](CC(=O)O)NC(=O)[C@H](Cc2ccc(OCC(=O)O)cc2)NC(=O)[C@H](CN)NC(=O)CSC[C@@H](C(=O)NCCOCCOCC(=O)N[C@@H](CCC(=O)O)C(=O)NCCCCCCCCCCC(=O)O)NC(=O)[C@H]([C@@H](C)O)NC(=O)[C@H](C(C)C)NC(=O)[C@H](CC2CCCCC2)NC(=O)[C@H](Cc2cnc[nH]2)NC1=O [Compound 1099] ({CH2CO}-[Dap]Y(Carboxymethyl)DWV[Bip]V[Orn][dL]H[Cha]VTC[AEEA]E[Aun]-OH; thioether N-14)
8.8	CC(C)C[C@H]1NC(=O)[C@H](CCCN)NC(=O)[C@H](C(C)C)NC(=O)[C@H](Cc2ccc(-c3ccccc3)cc2)NC(=O)[C@H](C(C)C)NC(=O)[C@H](Cc2c[nH]c3ccccc23)NC(=O)[C@H](CC(=O)O)NC(=O)[C@H](Cc2ccc(OCC(=O)O)cc2)NC(=O)[C@H](CN)NC(=O)CSC[C@@H](C(=O)NCCOCCOCC(=O)NCCCCCCCCCCC(=O)O)NC(=O)[C@H]([C@@H](C)O)NC(=O)[C@H](C(C)C)NC(=O)[C@H](CC2CCCCC2)NC(=O)[C@H](Cc2cnc[nH]2)NC1=O [Compound 1100] ({CH2CO}-[Dap]Y(Carboxymethyl)DWV[Bip]V[Orn][dL]H[Cha]VTC[AEEA][Aun]-OH; thioether N-14)
69.6	Cc1cccc(C[C@@H]2NC(=O)[C@H](CC(=O)O)NC(=O)[C@H](Cc3ccc(OCC(=O)O)cc3)NC(=O)[C@H](CN)NC(=O)CSC[C@@H](C(=O)N[C@@H](CCN)C(=O)NCCCCCCCCCCC(=O)O)NC(=O)[C@H]([C@@H](C)O)NC(=O)[C@H](C(C)C)NC(=O)[C@H](CC3CCCCC3)NC(=O)[C@H](Cc3cnc[nH]3)NC(=O)[C@@H](CC(C)C)NC(=O)[C@H](CCCN)NC(=O)[C@H](C(C)C)NC(=O)[C@H](Cc3ccc(-c4ccccc4)cc3)NC(=O)[C@H](C(C)C)NC2=O)c1 [Compound 1101] ({CH2CO}-[Dap]Y(Carboxymethyl)D[Phe(3-Me)]V[Bip]V[Orn][dL]H[Cha]VTC[Dab][Aun]-OH; thioether N-14)
29.1	Cc1cccc(C[C@@H]2NC(=O)[C@H](CC(=O)O)NC(=O)[C@H](Cc3ccc(OCC(=O)O)cc3)NC(=O)[C@H](CN)NC(=O)CSC[C@@H](C(=O)N[C@@H](C)C(=O)N[C@@H](CCC(=O)O)C(=O)NCCCCCCCCCCC(=O)O)NC(=O)[C@H]([C@@H](C)O)NC(=O)[C@H](C(C)C)NC(=O)[C@H](CC3CCCCC3)NC(=O)[C@H](Cc3cnc[nH]3)NC(=O)[C@@H](CC(C)C)NC(=O)[C@H](CCCN)NC(=O)[C@H](C(C)C)NC(=O)[C@H](Cc3ccc(-c4ccccc4)cc3)NC(=O)[C@H](C(C)C)NC2=O)c1 [Compound 1103] ({CH2CO}-[Dap]Y(Carboxymethyl)D[Phe(3-Me)]V[Bip]V[Orn][dL]H[Cha]VTCAE[Aun]-OH; thioether N-14)
